Test results taken from a melting point compilation (Tetko et al.).

Structure (SMILES) | melting point [°C]
O=C(Nc1ccccc1)Nc1ccc(C(=O)O)cc1 | 260 to 262
CC1(C)OC(=O)C(=Cc2ccc(I)o2)C(=O)O1 | 124 to 126
COc1ccc(SCC(=O)O)cc1 | 77 to 79
Cc1cc(C(C)(C)C)cc(C)c1S(=O)(=O)N1CCNCC1 | 124 to 126
CS(=O)(=O)Nc1ccc(O)c(C(=O)O)c1 | 228 to 230
CC(=O)c1cc(C#N)c(S)nc1C | 127 to 129
O=C(O)c1cc(-c2ccc(Cl)s2)[nH]n1 | 231 to 233
O=C(CCl)N1CCOC1=O | 53 to 55
O=C(NCCCc1ccccc1)c1ccccc1O | 77 to 79
COc1ccccc1-n1cc(S(=O)(=O)Cl)cn1 | 68 to 70
Cn1cnc2cc(Br)ccc2c1=O | 156 to 158
Cc1c(Br)cccc1S(=O)(=O)Cl | 64 to 66
c1cc(-n2ccnc2)ccn1 | 104 to 106
O=c1cc(-c2ccccc2)c2ccccc2[nH]1 | 263 to 265
CC1(C)NC(=O)N(CC#N)C1=O | 155 to 157
COC(=O)C(=O)CC(=O)c1ccccc1F | 81 to 83
COc1ccc(C(=O)NCCCC(=O)O)cc1 | 122 to 124
Cc1ccccc1C(C)(C)C(=O)O | 93 to 95
Cn1ncc2ccc(C#N)cc21 | 104 to 106
CC(=O)c1ccc(SCC(=O)O)cc1F | 138 to 140
Cc1c(C(F)(F)F)cccc1S(N)(=O)=O | 149 to 151
Nc1nc(-c2ccccc2Cl)c(-c2ccccc2Cl)s1 | 198 to 200

Structure (SMILES) | melting point [°C]
CC(=O)C(C#N)c1c(F)cccc1Cl (centres undefined) | 100 to 102
Clc1cc(-c2ccccc2)c2ccccc2n1 | 85 to 89
O=C(O)c1ccc([N+](=O)[O-])cc1I | 139 to 141
O=C(O)CNc1ccc(Cl)cc1 | 142 to 144
Cc1ccc(C(=O)O)cc1NC(=O)c1ccccc1F | 268 to 270
O=C(O)c1ccc(OCc2ccccc2)nc1 | 168 to 170
CCNS(=O)(=O)c1ccc(Br)c(C)c1 | 91 to 93
O=C(O)c1cccc(Sc2cccc(Br)c2)n1 | 113 to 115
O=C(O)CCCOc1ccccc1F | 76 to 78
COC(C)c1nc(C(=O)O)cs1 (centres undefined) | 73 to 75
O=C(O)c1ccc(-c2ccc(-c3ccccc3)cc2)s1 | 272 to 274
Cc1ccc(CN)cn1 | 59 to 61
Cc1cc(C(=O)C(C)Cl)c(C)n1-c1ccccc1 (centres undefined) | 78 to 82
COc1cc(CCl)c(OC)cc1Br | 65 to 67
Clc1ccccc1-c1ncn[nH]1 | 154 to 156
O=C(O)c1csc(Cc2cccc(F)c2)n1 | 149 to 151
Cc1nn(-c2ccccc2)c(C)c1NC(=O)C(C)Cl (centres undefined) | 134 to 136
C[C@H](NC(=O)c1cccc([N+](=O)[O-])c1)C(=O)O | 159 to 161
CN(C)c1cccc(C(=O)NN)c1 | 99 to 101
CCOC(=O)C(NC(=O)c1ccc(Cl)c(Cl)c1)C(C)O (centres undefined) | 68 to 70
O=C1NC(=O)C(c2ccccc2)(C(F)(F)F)N1 (centres undefined) | 240 to 242
CC(C)c1[nH]ncc1C(=O)O | 216 to 218

Structure (SMILES) | melting point [°C]
COC(=O)NC(=O)CCl | 147 to 151
Oc1ccc2ccc(C(F)(F)F)nc2c1 | 255 to 257
O=C(O)c1cc(S(=O)(=O)N2CCC2)ccc1Cl | 172 to 174
Cc1cc(C)nc(-n2nc(C)c(CC(=O)O)c2C)n1 | 249 to 251
Cc1cc(OCC(=O)O)ccc1Cl | 180 to 182
CC1(C)CCC(C)(C)c2cc(C(=O)O)ccc21 | 199 to 201
COC(=O)CNc1cccc(F)c1 | 65 to 67
O=C(O)CNS(=O)(=O)c1ccc(F)cc1 | 146 to 148
CCOCCOc1ccc(Br)cc1C=O | 28 to 30
Nc1cc(Cl)ccc1Sc1ccccc1 | 62 to 64
Brc1csc(Br)n1 | 80 to 84
O=C1Nc2c(Br)cc(Cl)cc2C1=O | 245 to 247
COc1ccc(OC)c(CBr)c1 | 77 to 79
CON(C)C(=O)Cc1ccc(Cl)cc1 | 45 to 47
CC(=O)Nc1ccc(C)c(N)c1 | 134 to 136
N#CC=Cc1cccnc1 | 104 to 106
CC(C)CC(CNC(=O)OC(C)(C)C)C(=O)O (centres undefined) | 76 to 78
O=C(O)Cn1cnc2ccc(Br)cc2c1=O | 277 to 279
CC(=O)Nc1ccc(S(=O)(=O)N(C)CC(=O)O)cc1 | 225 to 227
CCC(=O)Nc1cccc(CN)c1 | 56 to 58
COc1cc2c(cc1OC)NCC2 | 103 to 105
CS(=O)(=O)c1ccc(CCN)cc1 | 76 to 78

Structure (SMILES) | melting point [°C]
O=C1CC(c2ccccc2)=NN1c1ccccc1 | 138 to 140
CNCC(=O)N1CCN(C(=O)OC(C)(C)C)CC1 | 64 to 66
COc1ccc2c(c1)NC(=O)CCC2 | 127 to 129
CC(O)Cc1cc(F)ccc1Br (centres undefined) | 56 to 58
Cc1cc(C)cc(N(CCC#N)C(=O)CCl)c1 | 67 to 69
Cc1ccc(-c2ncc(C(=O)O)s2)c(C)c1 | 171 to 173
COC(=O)c1ccc(-n2c(C)cc(C(=O)CCl)c2C)cc1 | 157 to 159
O=C(Nc1ccccc1)C(Cl)C(=O)c1ccccc1 (centres undefined) | 113 to 115
CNC(=O)c1cccnc1Cl | 106 to 108
COc1cccc(-c2nn(Cc3ccccc3)cc2C(=O)O)c1 | 174 to 176
COC(=O)c1ccc(F)cc1S(=O)(=O)Cl | 63 to 65
O=S(=O)(Nc1cccc(O)c1)c1ccccc1 | 127 to 129
NC(=O)NCCCc1ccccc1 | 137 to 139
COc1ccc([N+](=O)[O-])cc1NC(=O)C(C)Cl (centres undefined) | 131 to 133
Cc1cc2[nH]c(=O)c3ccccc3n2n1 | 278 to 282
C#CCS(=O)(=O)CCNC(=O)OC(C)(C)C | 126 to 128
O=c1[nH]c(-c2cccc(Cl)c2)cs1 | 163 to 165
O=[N+]([O-])c1c(Cl)ccc2scnc12 | 132 to 134
COC(=O)c1ccc(NS(=O)(=O)c2ccc(C)cc2)cc1 | 150 to 152
COc1cccc(C(=O)c2cccnc2)c1 | 72 to 74
Cc1oncc1C(=O)Nc1cccc(C(=O)O)c1 | 245 to 247
Cc1ccn2c(C(=O)O)cnc2c1 | 159 to 161

Further lines, results first:

melting point [°C] | Structure (SMILES)
154 to 156 | Cc1ccc(C(=O)N2CC(C)CC(C)C2)cc1N (centres undefined)
88 to 90 | NNC(=O)c1cccc2cccnc12
103 to 105 | CC1CCN(C(N)=S)CC1
156 to 158 | CC1CCCCC12NC(=O)N(CC(=O)O)C2=O (centres undefined)
166 to 168 | O=C(O)C1CCN(S(=O)(=O)c2ccc(Br)s2)CC1
129 to 131 | NC(=O)CSc1ccccc1NC(=O)CCl
99 to 101 | NNC(=O)Cc1cccnc1
48 to 50 | CCOC(=O)c1cc(C2CC2)nc2onc(C(C)C)c12
175 to 177 | Cc1ccc(-c2nc(N)sc2CN(C)C)cc1
49 to 51 | Nc1ccccc1OCC(F)(F)F
44 to 46 | CCc1ccc(N)cc1[N+](=O)[O-]
154 to 156 | CC1(C)C(=O)NC(=O)N1CC(N)=O
117 to 119 | Nc1cnn(CC(=O)Nc2cccnc2)c1
254 to 256 | NC1(C(=O)O)Cc2ccccc2C1
139 to 141 | O=C1NCCNC1c1ccccc1 (centres undefined)
179 to 181 | COc1cccc(C2C(C(=O)O)CC(=O)N2C2CC2)c1 (centres undefined)
118 to 120 | CC(=O)Nc1ccc(N)c(C(F)(F)F)c1
57 to 59 | N#CCc1csc(-c2ccccc2)n1
141 to 143 | Nc1nnc(CC2CC2)o1

melting point [°C] | Structure (SMILES)
194 to 196 | O=C(O)c1ccc(COc2ccc(Br)cc2)o1
175 to 177 | CN(C1CCCCC1)S(=O)(=O)c1ccc(S)nc1
120 to 122 | Nc1ccc(C(=O)N2CCCC2c2ccccc2)cc1 (centres undefined)
183 to 185 | NC(=O)c1ccccc1I
166 to 168 | NNC(=O)CCc1ccccc1O
176 to 178 | NC(=S)N1CCN(c2ccc(Cl)cc2)CC1
159 to 161 | Nc1cc(O)cc(F)c1
189 to 191 | NNC(=O)Cc1ccc2ccccc2c1
178 to 180 | Sc1nnc(-c2ccccc2)c2ccccc12
85 to 87 | Nc1nc(-c2cccc(C(F)(F)F)c2)cs1
266 to 268 | Cc1ccc(-c2nnc(S)o2)cc1
149 to 151 | CC(=O)c1ccc(N2CCOC2=O)cc1
95 to 99 | O=C1CCc2c(Br)cccc21
249 to 251 | Cn1cnnc1-c1ccc(N)nc1
159 to 161 | Cn1cnn(-c2ccc(N)cc2)c1=O
119 to 121 | Cc1cn(-c2ccccc2)nc1N
67 to 69 | O=C1C(Br)CCN1C1CCOCC1 (centres undefined)
142 to 144 | O=C(O)CCCC(=O)Nc1cccnc1N1CCCC1
98 to 100 | NCC(O)COc1ccc(C(F)(F)F)cc1 (centres undefined)

melting point [°C] | Structure (SMILES)
148 to 150 | NC(CNS(=O)(=O)c1ccc(F)cc1)=NO
110 to 112 | OCCNc1ccncc1
182 to 184 | COc1ccccc1Nc1nnc(S)s1
68 to 70 | CC1CCN(Cc2ccccc2)c2ccccc2N1 (centres undefined)
126 to 128 | CC(C)(C)C1CCCCC(=O)N1 (centres undefined)
159 to 161 | NS(=O)(=O)N1CCc2ccccc2C1
128 to 130 | NS(=O)(=O)c1cnc(Cl)s1
151 to 153 | Nc1cccc(N2CCS(=O)(=O)CC2)c1
104 to 106 | Cn1ncc2c1CCCC2O (centres undefined)
86 to 88 | Cc1nn(C2CCS(=O)(=O)C2)c(N2CCCCC2)c1C=O (centres undefined)
211 to 213 | Nc1c(-c2ccncc2)nc2ccccn12
83 to 85 | CC(Cl)C(=O)NCC1CCCCC1 (centres undefined)
69 to 73 | CCCN1CCc2c(sc(N)c2C(=O)OCC)C1
211 to 213 | Oc1cccc(-c2nnco2)c1
181 to 183 | COc1ccccc1-c1nnc(SCC(=O)O)n1N
102 to 104 | O=C1OC(CBr)CN1c1ccccc1 (centres undefined)
129 to 131 | NC(=O)c1cc(OC2CCNCC2)ccn1
108 to 112 | CCN(CC)S(=O)(=O)c1ccc(C)c(N)c1
